In patent publication US11076594B2, “Pyrazolone compound or salt thereof, preparation method therefor, herbicide composition and use thereof” (QINGDAO KINGAGROOT CHEMICAL COMPOUNDS CO., LTD., priority 2015, dated 2021):

Columns and labels:
Assay type in all cases: in vivo
Indian mallow = assay: weed control effect in post-emergence stage (Table 1); set-up: key: Level 10: completely dead; Level 9: above 95% growth control rate; Level 8: above 90% growth control rate; Level 7: above 80% growth control rate; Level 6: above 70% growth control rate; Level 5: above 60% growth control rate; Level 4: above 50% growth control rate; Level 3: above 20% growth control rate; Level 2: 5%-20% growth control rate; Level 1: below 5% growth control rate; conditions: post-emergence spray at 4-5 leaf stage, 250 g/ha active ingredient with 450 kg/ha water, rated after 3 weeks in greenhouse
In short: (§1)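 Read-out is growth control rate based on fresh weight, determined 3 weeks after treatment. Plants raised from seed in potted soil (0.5-2 cm cover) in greenhouse were sprayed 2-3 weeks post-sowing at 4-5 leaves with acetone/Tween 80 aqueous compound solutions.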

bidens bipinnata = assay: as above; set-up: key: Level 10: completely dead; Level 9: above 95% growth control rate; Level 8: above 90% growth control rate; Level 7: above 80% growth control rate; Level 6: above 70% growth control rate; Level 5: above 60% growth control rate; Level 4: above 50% growth control rate; Level 3: above 20% growth control rate; Level 2: 5%-20% growth control rate; Level 1: below 5% growth control rate; conditions: post-emergence spray at 4-5 leaf stage, 250 g/ha active ingredient with 450 kg/ha water, rated after 3 weeks in greenhouse
In short: as §1

crab grass = assay: as above; set-up: key: Level 10: completely dead; Level 9: above 95% growth control rate; Level 8: above 90% growth control rate; Level 7: above 80% growth control rate; Level 6: above 70% growth control rate; Level 5: above 60% growth control rate; Level 4: above 50% growth control rate; Level 3: above 20% growth control rate; Level 2: 5%-20% growth control rate; Level 1: below 5% growth control rate; conditions: post-emergence spray at 4-5 leaf stage, 250 g/ha active ingredient with 450 kg/ha water, rated after 3 weeks in greenhouse
In short: as §1

echinochloa = assay: as above; set-up: key: Level 10: completely dead; Level 9: above 95% growth control rate; Level 8: above 90% growth control rate; Level 7: above 80% growth control rate; Level 6: above 70% growth control rate; Level 5: above 60% growth control rate; Level 4: above 50% growth control rate; Level 3: above 20% growth control rate; Level 2: 5%-20% growth control rate; Level 1: below 5% growth control rate; conditions: post-emergence spray at 4-5 leaf stage, 250 g/ha active ingredient with 450 kg/ha water, rated after 3 weeks in greenhouse
In short: as §1

foxtail = assay: as above; set-up: key: Level 10: completely dead; Level 9: above 95% growth control rate; Level 8: above 90% growth control rate; Level 7: above 80% growth control rate; Level 6: above 70% growth control rate; Level 5: above 60% growth control rate; Level 4: above 50% growth control rate; Level 3: above 20% growth control rate; Level 2: 5%-20% growth control rate; Level 1: below 5% growth control rate; conditions: post-emergence spray at 4-5 leaf stage, 250 g/ha active ingredient with 450 kg/ha water, rated after 3 weeks in greenhouse
In short: as §1

rorippa indica = assay: as above; set-up: key: Level 10: completely dead; Level 9: above 95% growth control rate; Level 8: above 90% growth control rate; Level 7: above 80% growth control rate; Level 6: above 70% growth control rate; Level 5: above 60% growth control rate; Level 4: above 50% growth control rate; Level 3: above 20% growth control rate; Level 2: 5%-20% growth control rate; Level 1: below 5% growth control rate; conditions: post-emergence spray at 4-5 leaf stage, 250 g/ha active ingredient with 450 kg/ha water, rated after 3 weeks in greenhouse
In short: as §1

corn = assay: post-emergence stage experiment, crop (Table 1); conditions: post-emergence spray at 4-5 leaf stage, 250 g/ha active ingredient with 450 kg/ha water, rated after 3 weeks in greenhouse
In short: as §1

wheat [1] = assay: post-emergence stage experiment, crop (Table 1); conditions: post-emergence spray at 4-5 leaf stage, 250 g/ha active ingredient with 450 kg/ha water, rated after 3 weeks in greenhouse
In short: as §1

rice = assay: post-emergence stage experiment, crop (Table 1); conditions: post-emergence spray at 4-5 leaf stage, 250 g/ha active ingredient with 450 kg/ha water, rated after 3 weeks in greenhouse
In short: as §1

alopecurus japonicas = assay: wheat field resistant weed control, greenhouse spray at 4 leaf stage; set-up: key: Level 10: completely dead; Level 9: above 95% growth control rate; Level 8: above 90% growth control rate; Level 7: above 80% growth control rate; Level 6: above 70% growth control rate; Level 5: above 60% growth control rate; Level 4: above 50% growth control rate; Level 3: above 20% growth control rate; Level 2: 5%-20% growth control rate; Level 1: below 5% growth control rate; conditions: sprayed at 4 leaf stage, 4 weeks after treatment, resistant to ALS and ACCase inhibitor herbicides
Experimental: The activity level standard of harmful plant destruction (i.e. growth control rate) is as follows:
The above described growth control rate is fresh weight control rate.
The seeds of alopecurus japonicas, flixweed, shepherd's purse, corn gromwell, chickweed, beckmannia syzigachne, and annual ryegrass and wheat seeds were put into a plastic pot loaded with soil, and then covered with 0.5-2 cm soil, the seeds were allowed to grow in good greenhouse environment. The test plants were treated at 4 leaf stage 2-3 weeks after sowing. The test compounds of the present invention were dissolved in acetone respectively, then added with methyl oleate emulsion and diluted by certain amount of water to certain concentration. The solution was sprayed to the plant with a sprayer. Then the plants were cultured for 4 weeks in greenhouse.

wheat [2] = assay: wheat field test, crop selectivity, greenhouse spray at 4 leaf stage; conditions: 4 weeks after treatment
In short: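 Potted plants grown in greenhouse were sprayed at the 4 leaf stage, 2–3 weeks post-sowing, with compound in acetone plus methyl oleate emulsion diluted in water. After 4 weeks of further greenhouse culture, growth control was scored as fresh weight control rate.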

chickweed = assay: wheat field resistant broadleaf weed control, greenhouse spray at 4 leaf stage; set-up: key: Level 10: completely dead; Level 9: above 95% growth control rate; Level 8: above 90% growth control rate; Level 7: above 80% growth control rate; Level 6: above 70% growth control rate; Level 5: above 60% growth control rate; Level 4: above 50% growth control rate; Level 3: above 20% growth control rate; Level 2: 5%-20% growth control rate; Level 1: below 5% growth control rate; conditions: 250 g/ha of the active substance; 4 weeks after treatment; ALS inhibitor resistant
In short: (§2)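 Seeds sown in soil-filled pots, covered 0.5-2 cm, greenhouse-grown; sprayed at 4 leaf stage (2-3 wk); acetone/methyl oleate emulsion/water formulation; 4 wk greenhouse; fresh wt control rate.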

corn gromwell = assay: as above; set-up: key: Level 10: completely dead; Level 9: above 95% growth control rate; Level 8: above 90% growth control rate; Level 7: above 80% growth control rate; Level 6: above 70% growth control rate; Level 5: above 60% growth control rate; Level 4: above 50% growth control rate; Level 3: above 20% growth control rate; Level 2: 5%-20% growth control rate; Level 1: below 5% growth control rate; conditions: 250 g/ha of the active substance; 4 weeks after treatment; ALS inhibitor resistant
In short: as §2

flixweed = assay: as above; set-up: key: Level 10: completely dead; Level 9: above 95% growth control rate; Level 8: above 90% growth control rate; Level 7: above 80% growth control rate; Level 6: above 70% growth control rate; Level 5: above 60% growth control rate; Level 4: above 50% growth control rate; Level 3: above 20% growth control rate; Level 2: 5%-20% growth control rate; Level 1: below 5% growth control rate; conditions: 250 g/ha of the active substance; 4 weeks after treatment; ALS inhibitor resistant
In short: as §2

shepherd's purse = assay: as above; set-up: key: Level 10: completely dead; Level 9: above 95% growth control rate; Level 8: above 90% growth control rate; Level 7: above 80% growth control rate; Level 6: above 70% growth control rate; Level 5: above 60% growth control rate; Level 4: above 50% growth control rate; Level 3: above 20% growth control rate; Level 2: 5%-20% growth control rate; Level 1: below 5% growth control rate; conditions: 250 g/ha of the active substance; 4 weeks after treatment; ALS inhibitor resistant
In short: as §2

[3] = 2 g/mu, sprayed at 4 leaf stage
[4] = 4 g/mu, sprayed at 4 leaf stage
[5] = 8 g/mu, sprayed at 4 leaf stage
[6] = 16 g/mu, sprayed at 4 leaf stage
[7] = 32 g/mu, sprayed at 4 leaf stage
[8] = 250 g/ha of the active substance

## Cn1nc(C2CC2)c(C(=O)c2ccc(C(F)(F)F)c(N3CCCCC3=O)c2Cl)c1O [Compound 046]
Indian mallow
  weed control effect, Indian mallow (level): 10
Bidens bipinnata
  weed control effect, Bidens bipinnata (level): 2 (Level 2: 5%-20% growth control rate)
Crab grass
  weed control effect, Crab grass (level): 6 (Level 6: above 70% growth control rate)
echinochloa
  weed control effect, Echinochloa (level): 6 (Level 6: above 70% growth control rate)
foxtail
  weed control effect, Green foxtail (level): 10
Rorippa indica
  weed control effect, Rorippa indica (level): 10
corn
  effect on crop, Corn (level): 4 (Level 4: above 50% growth control rate)
Wheat [1]
  effect on crop, Wheat (level): 0
rice
  effect on crop, Rice (level): 5 (Level 5: above 60% growth control rate)
Alopecurus japonicas; 1 g/mu
  Alopecurus japonicas weed controlling effect (activity level): 6 (Level 6: above 70% growth control rate)
Alopecurus japonicas; 2 g/mu
  Alopecurus japonicas weed controlling effect (activity level): 9 (Level 9: above 95% growth control rate)
Alopecurus japonicas; 4 g/mu
  Alopecurus japonicas weed controlling effect (activity level): 10
Alopecurus japonicas; 8 g/mu
  Alopecurus japonicas weed controlling effect (activity level): 10
Wheat [2]; [3]
  Wheat (activity level, crop damage): 0
Wheat [2]; [4]
  Wheat (activity level, crop damage): 0
Wheat [2]; [5]
  Wheat (activity level, crop damage): 0
Wheat [2]; [6]
  Wheat (activity level, crop damage): 0
Wheat [2]; [7]
  Wheat (activity level, crop damage): 1 (Level 1: below 5% growth control rate)
Wheat [2]; [8]
  Wheat (activity level, crop damage): 0
chickweed
  chickweed weed controlling effect (activity level): 10
Corn gromwell
  corn gromwell weed controlling effect (activity level): 10
flixweed
  flixweed weed controlling effect (activity level): 10
shepherd's purse
  shepherd's purse weed controlling effect (activity level): 10

## CCOc1c(C(=O)Oc2c(C(=O)c3ccc(C(F)(F)F)c(N4CCCCC4=O)c3Cl)c(C3CC3)nn2C)cnn1C [Compound 048]
Indian mallow
  weed control effect, Indian mallow (level): 10
Bidens bipinnata
  weed control effect, Bidens bipinnata (level): 4 (Level 4: above 50% growth control rate)
Crab grass
  weed control effect, Crab grass (level): 7 (Level 7: above 80% growth control rate)
echinochloa
  weed control effect, Echinochloa (level): 6 (Level 6: above 70% growth control rate)
foxtail
  weed control effect, Green foxtail (level): 8 (Level 8: above 90% growth control rate)
Rorippa indica
  weed control effect, Rorippa indica (level): 10
corn
  effect on crop, Corn (level): 3 (Level 3: above 20% growth control rate)
Wheat [1]
  effect on crop, Wheat (level): 1 (Level 1: below 5% growth control rate)
rice
  effect on crop, Rice (level): 5 (Level 5: above 60% growth control rate)
Alopecurus japonicas; 1 g/mu
  Alopecurus japonicas weed controlling effect (activity level): 8 (Level 8: above 90% growth control rate)
Alopecurus japonicas; 2 g/mu
  Alopecurus japonicas weed controlling effect (activity level): 10
Alopecurus japonicas; 4 g/mu
  Alopecurus japonicas weed controlling effect (activity level): 10
Alopecurus japonicas; 8 g/mu
  Alopecurus japonicas weed controlling effect (activity level): 10
Wheat [2]; [3]
  Wheat (activity level, crop damage): 0
Wheat [2]; [4]
  Wheat (activity level, crop damage): 0
Wheat [2]; [5]
  Wheat (activity level, crop damage): 0
Wheat [2]; [6]
  Wheat (activity level, crop damage): 1 (Level 1: below 5% growth control rate)
Wheat [2]; [7]
  Wheat (activity level, crop damage): 4 (Level 4: above 50% growth control rate)
Wheat [2]; [8]
  Wheat (activity level, crop damage): 0
chickweed
  chickweed weed controlling effect (activity level): 10
Corn gromwell
  corn gromwell weed controlling effect (activity level): 10
flixweed
  flixweed weed controlling effect (activity level): 10
shepherd's purse
  shepherd's purse weed controlling effect (activity level): 10
